Experimental data reported in patent publication US11612595B2, “Compositions and methods for treating rheumatoid arthritis” (Generos Biopharma Ltd., priority 2017, dated 2023).

Legend:
[1] = weight changes in mouse CIA model; assay type: in vivo, DBA/1J mice
Description: FIGS. 7A and 78 show graphs depicting weight changes in five groups of mouse CIA models under different treatment schemes. DBA/1 mice were randomly divided into 9 groups with 10 mice each group. On day 0 and 21, all of them except blank control group were inoculated with 50 ul collagen plus CFA mixture subcutaneously at back flank near tail. The weights of all 90 mice were monitored 3 times a week throughout the experiment.
Eight of nine groups (10 mice in each group) of male DBA/1J mice (age 9-10 weeks. H-2q haplotype) were subject to CIA model induction and then to different treatment schemes. The group of mice without CIA model induction was used as a control (Blank). Specifically, Bovine type II collagen (Chondrex) was mixed with Freund's complete adjuvant (CFA) (Sigma) and injected s.c. to flank near tail of the mice twice (the second injection was made 21 days after the first injection) to create CIA model mice. The eight groups of CIA model mice were separated into four prophylactic groups and four therapeutic groups, with each group subjected to different treatments.
In the four prophylactic groups, daily treatments started from the date when the first CIA induction injection was made. The first of the four prophylactic groups of CIA model mice were treated with 30% PEG300 (containing 4% DMSO-all 30% PEG300 in the application contains 4% DMSO) solution via intraperitoneal injection as controls (Model). The second of the four prophylactic groups of CIA model mice were treated with nicotinohydrazide (Calbiochem) 10 mg/kg in 30% PEG300 solution via intraperitoneal injection (573108 10 mg/kg). The third of the four prophylactic groups of CIA model mice were treated with nicotinohydrazide (Calbiochem) 5 mg/kg in 30% PEG300 solution via intraperitoneal injection (573108 5 mg/kg). The last of the four prophylactic groups of CIA model mice were treated with Tofacitinib (Selleckchem) 5 mg/kg in 30% PEG300 solution via intraperitoneal injection (Tofacitinib 5 mg/kg).
In the four therapeutic groups, daily treatments started from the date when the second CIA induction injection was made. The first of the four therapeutic groups of CIA model mice were treated with 30% PEG300 solution via intraperitoneal injection as controls (Model). The second of the four therapeutic groups of CIA model mice were treated with nicotinohydrazide (Calbiochem) 10 mg/kg in 30% PEG300 solution via intraperitoncal injection (573108 10 mg/kg). The third of the four therapeutic groups of CIA model mice were treated with nicotinohydrazide (Calbiochem) 5 mg/kg in 30% PEG300 solution via intraperitoneal injection (573108 5 mg/kg). The last of the four therapeutic groups of CIA model mice were treated with Tofacitinib (Selleckchem) 5 mg/kg in 30% PEG300 solution via intraperitoncal injection (Tofacitinib 5 mg/kg).
The inventors collected data of the weight, and clinical scores of the mice every 2-3 days and performed statistic analysis. The method used in the statistic analysis was Student's t test, unpaired, two-tailed analysis.

[2] = target: STAT3 (Homo sapiens, UniProt P40763); settings: Daudi cells; cited from earlier work
[3] = target: T1, STAT5 (Homo sapiens, UniProt P42229+P51692); parameters: in Bcr-Abl+ K562 and KU812 cultures; endogenous in cells; host or cells: K562 and KU812 cells; settings: 5 to 10 μM for 3 h; Bcr-Abl+ K562 and KU812 cultures; cited from earlier work
T1 sequence (P42229 1-794): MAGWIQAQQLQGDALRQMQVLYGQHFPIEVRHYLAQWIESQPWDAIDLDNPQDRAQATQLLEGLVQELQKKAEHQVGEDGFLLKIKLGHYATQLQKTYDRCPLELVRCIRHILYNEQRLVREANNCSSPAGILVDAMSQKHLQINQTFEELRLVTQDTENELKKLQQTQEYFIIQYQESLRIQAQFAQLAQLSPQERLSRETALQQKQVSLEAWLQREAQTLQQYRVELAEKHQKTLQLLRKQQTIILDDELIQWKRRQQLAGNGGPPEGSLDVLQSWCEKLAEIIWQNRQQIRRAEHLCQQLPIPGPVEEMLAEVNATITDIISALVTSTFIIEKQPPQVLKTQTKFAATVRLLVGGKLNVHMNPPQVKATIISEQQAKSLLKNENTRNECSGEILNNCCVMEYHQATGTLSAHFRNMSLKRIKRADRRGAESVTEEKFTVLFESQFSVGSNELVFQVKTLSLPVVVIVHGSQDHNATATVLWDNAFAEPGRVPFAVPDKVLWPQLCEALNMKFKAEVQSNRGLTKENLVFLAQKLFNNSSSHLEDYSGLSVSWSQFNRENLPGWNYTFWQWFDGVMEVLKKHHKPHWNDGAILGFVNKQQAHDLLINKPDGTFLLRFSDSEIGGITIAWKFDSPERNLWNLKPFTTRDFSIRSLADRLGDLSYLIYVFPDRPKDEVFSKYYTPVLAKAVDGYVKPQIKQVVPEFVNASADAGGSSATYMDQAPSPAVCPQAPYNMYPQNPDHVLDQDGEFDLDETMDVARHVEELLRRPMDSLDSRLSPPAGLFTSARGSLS
T1 sequence (P51692 1-787): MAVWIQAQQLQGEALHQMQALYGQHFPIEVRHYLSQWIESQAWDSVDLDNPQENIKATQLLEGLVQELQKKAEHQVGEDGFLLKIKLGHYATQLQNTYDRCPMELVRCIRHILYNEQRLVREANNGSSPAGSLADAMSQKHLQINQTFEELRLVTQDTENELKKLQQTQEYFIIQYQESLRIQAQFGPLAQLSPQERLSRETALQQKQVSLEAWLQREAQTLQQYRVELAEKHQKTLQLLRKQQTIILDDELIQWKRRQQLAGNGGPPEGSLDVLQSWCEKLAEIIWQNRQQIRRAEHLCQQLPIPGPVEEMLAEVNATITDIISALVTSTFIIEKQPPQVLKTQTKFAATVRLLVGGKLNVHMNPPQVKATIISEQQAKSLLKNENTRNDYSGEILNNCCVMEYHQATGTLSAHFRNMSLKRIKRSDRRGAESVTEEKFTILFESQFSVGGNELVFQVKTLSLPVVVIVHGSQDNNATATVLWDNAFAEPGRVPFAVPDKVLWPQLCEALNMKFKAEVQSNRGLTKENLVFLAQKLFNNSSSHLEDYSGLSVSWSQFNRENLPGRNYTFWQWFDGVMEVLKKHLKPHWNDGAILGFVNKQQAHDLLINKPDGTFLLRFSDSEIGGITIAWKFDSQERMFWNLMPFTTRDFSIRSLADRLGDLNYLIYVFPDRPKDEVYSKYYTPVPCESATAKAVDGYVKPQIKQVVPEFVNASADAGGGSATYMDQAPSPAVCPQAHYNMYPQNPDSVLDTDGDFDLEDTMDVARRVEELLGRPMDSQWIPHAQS

[4] = prophylactic groups, 5 mg/kg i.p. daily
[5] = prophylactic groups, 10 mg/kg i.p. daily
[6] = therapeutic groups, 5 mg/kg i.p. daily

Chain of STAT3 (P40763 whole entry): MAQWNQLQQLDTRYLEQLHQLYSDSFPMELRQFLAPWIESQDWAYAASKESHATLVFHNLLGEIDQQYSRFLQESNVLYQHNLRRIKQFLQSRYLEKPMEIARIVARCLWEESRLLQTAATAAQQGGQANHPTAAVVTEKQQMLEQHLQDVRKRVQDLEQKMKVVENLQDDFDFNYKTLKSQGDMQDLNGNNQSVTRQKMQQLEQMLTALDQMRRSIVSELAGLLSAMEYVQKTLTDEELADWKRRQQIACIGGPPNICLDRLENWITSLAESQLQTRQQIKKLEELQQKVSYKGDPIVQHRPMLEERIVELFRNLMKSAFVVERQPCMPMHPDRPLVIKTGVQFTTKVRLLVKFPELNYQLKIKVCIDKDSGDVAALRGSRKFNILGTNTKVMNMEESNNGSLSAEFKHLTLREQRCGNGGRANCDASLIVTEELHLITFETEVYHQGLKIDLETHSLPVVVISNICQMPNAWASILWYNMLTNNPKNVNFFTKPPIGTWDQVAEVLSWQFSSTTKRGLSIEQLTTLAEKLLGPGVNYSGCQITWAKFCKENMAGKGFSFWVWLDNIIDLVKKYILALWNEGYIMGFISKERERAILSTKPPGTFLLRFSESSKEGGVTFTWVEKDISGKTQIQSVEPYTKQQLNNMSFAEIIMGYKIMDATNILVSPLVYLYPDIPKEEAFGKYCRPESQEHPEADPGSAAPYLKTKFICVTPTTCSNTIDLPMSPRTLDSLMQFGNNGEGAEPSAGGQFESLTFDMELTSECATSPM

SMILES | trend of weight changes, p vs Model [1, 4] | trend of weight changes, p vs Tofacitinib 5 mg/kg [1, 4] | trend of weight changes, p vs Model [1, 5] | trend of weight changes, p vs Tofacitinib 5 mg/kg [1, 5] | trend of weight changes, p vs Model [1, 6] | trend of weight changes, p vs Tofacitinib 5 mg/kg [1, 6] | trend of weight changes, p vs Model ([1]; therapeutic groups, 10 mg/kg i.p. daily) | IFN-α-stimulated STAT3 tyrosine phosphorylation [2] | constitutive STAT5 Tyr694 phosphorylation [3]
O=C(N/N=C/c1coc2ccccc2c1=O)c1cccnc1 [nicotinohydrazide, N′-((4-Oxo-4H-chromen-3-yl)methylene)nicotinohydrazide] | 0.4638 | 0.0136 | 0.32 | 0.0207 | < 0.0001 | 0.0006 | < 0.0001 | not | –
O=c1[nH]c2ccccc2n1C1CCN(CCCC(c2ccc(F)cc2)c2ccc(F)cc2)CC1 [pimozide, 1-[1-[4,4-bis(4-fluorophenyl)butyl]-4-piperidinyl]-1,3-dihydro-2H-benzimidazole-2-one] | – | – | – | – | – | – | – | – | inhibits
